Test results as given in ChEMBL document CHEMBL1151757, “Synthesis, radiosynthesis, and biological evaluation of fluorine-18-labeled 2beta-carbo(fluoroalkoxy)-3beta-(3'-((Z)-2-haloethenyl)phenyl)nortropanes: candidate radioligands for in vivo imaging of the serotonin transporter with positron emission tomography” (J Med Chem, 2008).

Legend:
[1] = Ratio of drug uptake in medulla to cerebellum in anesthetized cynomolgus monkey after 12.5 mins postinjection; assay type: ADME, organism-based, Macaca fascicularis; details: in vivo
[2] = Ratio of drug uptake in medulla to cerebellum in anesthetized cynomolgus monkey after 65 mins postinjection; assay type: ADME, organism-based, Macaca fascicularis; details: in vivo
[3] = Ratio of drug uptake in medulla to cerebellum in anesthetized cynomolgus monkey after 165 mins postinjection; assay type: ADME, organism-based, Macaca fascicularis; details: in vivo, 2.75 h
[4] = Drug uptake in anesthetized cynomolgus monkey brain occipital lobe after 65 mins postinjection; assay type: ADME, organism-based, Macaca fascicularis; details: in vivo
[5] = Drug uptake in anesthetized cynomolgus monkey brain occipital lobe after 125 mins postinjection; assay type: ADME, organism-based, Macaca fascicularis; details: in vivo
[6] = Drug uptake in anesthetized cynomolgus monkey brain occipital lobe after 155 mins postinjection; assay type: ADME, organism-based, Macaca fascicularis; details: in vivo
[7] = Drug uptake in anesthetized cynomolgus monkey brain occipital lobe after 225 mins postinjection; assay type: ADME, organism-based, Macaca fascicularis; details: in vivo, 3.75 h
[8] = Drug uptake in anesthetized cynomolgus monkey brain frontal lobe after 225 mins postinjection; assay type: ADME, organism-based, Macaca fascicularis; details: in vivo, 3.75 h
[9] = Ratio of drug uptake in occipital lobe to cerebellum in anesthetized cynomolgus monkey after 175 mins postinjection; assay type: ADME, organism-based, Macaca fascicularis; details: in vivo
[10] = test system: Putamen; assay: Drug uptake in anesthetized cynomolgus monkey brain putamen after 235 mins postinjection; assay type: ADME, organism-based, Macaca fascicularis; details: in vivo
[11] = test system: Thalamus; assay: Drug uptake in anesthetized cynomolgus monkey brain thalamus after 1.5 mins postinjection; assay type: ADME, organism-based, Macaca fascicularis; details: in vivo, 0.025 h
[12] = Ratio of drug uptake in frontal lobe to cerebellum in anesthetized cynomolgus monkey after 35 mins postinjection; assay type: ADME, organism-based, Macaca fascicularis; details: in vivo
[13] = test system: Midbrain; assay: Drug uptake in anesthetized cynomolgus monkey brain midbrain after 215 mins postinjection; assay type: ADME, organism-based, Macaca fascicularis; details: in vivo
[14] = test system: Pons; assay: Drug uptake in anesthetized cynomolgus monkey brain pons after 1.5 mins postinjection; assay type: ADME, organism-based, Macaca fascicularis; details: in vivo, 0.025 h
[15] = test system: Pons; assay: Drug uptake in anesthetized cynomolgus monkey brain pons after 18.5 mins postinjection; assay type: ADME, organism-based, Macaca fascicularis; details: in vivo
[16] = test system: Pons; assay: Drug uptake in anesthetized cynomolgus monkey brain pons after 45 mins postinjection; assay type: ADME, organism-based, Macaca fascicularis; details: in vivo, 0.75 h
[17] = test system: Pons; assay: Drug uptake in anesthetized cynomolgus monkey brain pons after 115 mins postinjection; assay type: ADME, organism-based, Macaca fascicularis; details: in vivo
[18] = test system: Pons; assay: Drug uptake in anesthetized cynomolgus monkey brain pons after 145 mins postinjection; assay type: ADME, organism-based, Macaca fascicularis; details: in vivo
[19] = test system: Medulla; assay: Drug uptake in anesthetized cynomolgus monkey brain medulla after 3.5 mins postinjection; assay type: ADME, organism-based, Macaca fascicularis; details: in vivo
[20] = test system: Medulla; assay: Drug uptake in anesthetized cynomolgus monkey brain medulla after 9.5 mins postinjection; assay type: ADME, organism-based, Macaca fascicularis; details: in vivo
[21] = test system: Medulla; assay: Drug uptake in anesthetized cynomolgus monkey brain medulla after 95 mins postinjection; assay type: ADME, organism-based, Macaca fascicularis; details: in vivo
[22] = test system: Medulla; assay: Drug uptake in anesthetized cynomolgus monkey brain medulla after 125 mins postinjection; assay type: ADME, organism-based, Macaca fascicularis; details: in vivo
[23] = Ratio of drug uptake in putamen to cerebellum in anesthetized cynomolgus monkey after 165 mins postinjection; assay type: ADME, organism-based, Macaca fascicularis; details: in vivo, 2.75 h
[24] = Drug uptake in anesthetized cynomolgus monkey brain cerebellum after 12.5 mins postinjection; assay type: ADME, organism-based, Macaca fascicularis; details: in vivo
[25] = Drug uptake in anesthetized cynomolgus monkey brain cerebellum after 95 mins postinjection; assay type: ADME, organism-based, Macaca fascicularis; details: in vivo
[26] = Drug uptake in anesthetized cynomolgus monkey brain cerebellum after 215 mins postinjection; assay type: ADME, organism-based, Macaca fascicularis; details: in vivo
[27] = Drug uptake in anesthetized cynomolgus monkey brain occipital lobe after 0.5 mins postinjection; assay type: ADME, organism-based, Macaca fascicularis; details: in vivo
[28] = Ratio of drug uptake in thalamus to cerebellum in anesthetized cynomolgus monkey after 9.5 mins postinjection; assay type: ADME, organism-based, Macaca fascicularis; details: in vivo
[29] = test system: Caudate; assay: Drug uptake in anesthetized cynomolgus monkey brain caudate after 2.5 mins postinjection; assay type: ADME, organism-based, Macaca fascicularis, Caudate nucleus; details: in vivo
[30] = test system: Caudate; assay: Drug uptake in anesthetized cynomolgus monkey brain caudate after 9.5 mins postinjection; assay type: ADME, organism-based, Macaca fascicularis, Caudate nucleus; details: in vivo
[31] = test system: Caudate; assay: Drug uptake in anesthetized cynomolgus monkey brain caudate after 55 mins postinjection; assay type: ADME, organism-based, Macaca fascicularis, Caudate nucleus; details: in vivo
[32] = test system: Putamen; assay: Drug uptake in anesthetized cynomolgus monkey brain putamen after 0.5 mins postinjection; assay type: ADME, organism-based, Macaca fascicularis; details: in vivo
[33] = test system: Putamen; assay: Drug uptake in anesthetized cynomolgus monkey brain putamen after 3.5 mins postinjection; assay type: ADME, organism-based, Macaca fascicularis; details: in vivo
[34] = Ratio of drug uptake in occipital lobe to cerebellum in anesthetized cynomolgus monkey after 12.5 mins postinjection; assay type: ADME, organism-based, Macaca fascicularis; details: in vivo
[35] = test system: Thalamus; assay: Drug uptake in anesthetized cynomolgus monkey brain thalamus after 3.5 mins postinjection; assay type: ADME, organism-based, Macaca fascicularis; design: unit not given here; details: in vivo
[36] = test system: Thalamus; assay: Drug uptake in anesthetized cynomolgus monkey brain thalamus after 6.5 mins postinjection; assay type: ADME, organism-based, Macaca fascicularis; design: unit not given here; details: in vivo
[37] = test system: Thalamus; assay: Drug uptake in anesthetized cynomolgus monkey brain thalamus after 45 mins postinjection; assay type: ADME, organism-based, Macaca fascicularis; design: unit not given here; details: in vivo, 0.75 h
[38] = test system: Putamen; assay: Drug uptake in anesthetized cynomolgus monkey brain putamen after 15.5 mins postinjection; assay type: ADME, organism-based, Macaca fascicularis; design: unit not given here; details: in vivo
[39] = test system: Putamen; assay: Drug uptake in anesthetized cynomolgus monkey brain putamen after 22.5 mins postinjection; assay type: ADME, organism-based, Macaca fascicularis; design: unit not given here; details: in vivo, 0.375 h
[40] = test system: Putamen; assay: Drug uptake in anesthetized cynomolgus monkey brain putamen after 55 mins postinjection; assay type: ADME, organism-based, Macaca fascicularis; design: unit not given here; details: in vivo
[41] = test system: Putamen; assay: Drug uptake in anesthetized cynomolgus monkey brain putamen after 85 mins postinjection; assay type: ADME, organism-based, Macaca fascicularis; design: unit not given here; details: in vivo
[42] = test system: Thalamus; assay: Drug uptake in anesthetized cynomolgus monkey brain thalamus after 55 mins postinjection; assay type: ADME, organism-based, Macaca fascicularis; design: unit not given here; details: in vivo
[43] = test system: Thalamus; assay: Drug uptake in anesthetized cynomolgus monkey brain thalamus after 65 mins postinjection; assay type: ADME, organism-based, Macaca fascicularis; design: unit not given here; details: in vivo
[44] = test system: Thalamus; assay: Drug uptake in anesthetized cynomolgus monkey brain thalamus after 115 mins postinjection; assay type: ADME, organism-based, Macaca fascicularis; design: unit not given here; details: in vivo
[45] = test system: Midbrain; assay: Drug uptake in anesthetized cynomolgus monkey brain midbrain after 4.5 mins postinjection; assay type: ADME, organism-based, Macaca fascicularis; design: unit not given here; details: in vivo, 0.075 h
[46] = test system: Midbrain; assay: Drug uptake in anesthetized cynomolgus monkey brain midbrain after 55 mins postinjection; assay type: ADME, organism-based, Macaca fascicularis; design: unit not given here; details: in vivo
[47] = test system: Midbrain; assay: Drug uptake in anesthetized cynomolgus monkey brain midbrain after 105 mins postinjection; assay type: ADME, organism-based, Macaca fascicularis; design: unit not given here; details: in vivo, 1.75 h
[48] = Ratio of drug uptake in midbrain to cerebellum in anesthetized cynomolgus monkey after 2.5 mins postinjection; assay type: ADME, organism-based, Macaca fascicularis; details: in vivo

Work on `O=C(OCC[18F])C1C2CCC(CC1c1cccc(/C=C\I)c1)N2` (stereo not drawn) yielded a Ratio [1] of 0.9, a Ratio [2] of 1.2 and a Ratio [3] of 1.7. It also gave a Drug uptake [4] of 2.86, a Drug uptake [5] of 1.97 and a Drug uptake [6] of 1.63. For the same molecule, the Drug uptake [7] was 1.22, the Drug uptake [8] was 1.45 and the Ratio [9] was 1. The Drug uptake [10] was 2.35, the Drug uptake [11] was 0.09 and the Ratio [12] was 0.7. The Drug uptake [13] was 3.12, the Drug uptake [14] was 0.09 and the Drug uptake [15] was 2.91. For the same molecule, the Drug uptake [16] was 3.34, the Drug uptake [17] was 2.86 and the Drug uptake [18] was 2.57. It also gave a Drug uptake [19] of 1.08, a Drug uptake [20] of 3.15 and a Drug uptake [21] of 3.56. It also gave a Drug uptake [22] of 3.27, a Ratio [23] of 1.8 and a Drug uptake [24] of 3.71. The Drug uptake [25] was 2.61, the Drug uptake [26] was 1.4 and the Drug uptake [27] was 0. It also gave a Ratio [28] of 0.9, a Drug uptake [29] of 0.37 and a Drug uptake [30] of 2.5. For the same molecule, the Drug uptake [31] was 3.72, the Drug uptake [32] was 0 and the Drug uptake [33] was 0.96. It also gave a Ratio [34] of 0.7, a Drug uptake [35] of 0.96 and a Drug uptake [36] of 2.49. For the same molecule, the Drug uptake [37] was 4.3, the Drug uptake [38] was 3.61 and the Drug uptake [39] was 3.96. For the same molecule, the Drug uptake [40] was 4.37, the Drug uptake [41] was 4.16 and the Drug uptake [42] was 4.29. For the same molecule, the Drug uptake [43] was 4.26, the Drug uptake [44] was 3.58 and the Drug uptake [45] was 1.87. The Drug uptake [46] was 4.91, the Drug uptake [47] was 4.34 and the Ratio [48] was 1.2.
